Test results published in PubChem BioAssay (NCI).
“And” between values parts separate entries of the source, which are not always exact repeats. Equal entries are not always repeated.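 Tested at 5 concentrations; 48 h exposure; 96-well plates; endpoints linearly interpolated, else capped at highest concentration. At the GI50, growth is halved. TGI: total growth inhibition.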

Key:
Assay in all cases: inhibition of tumour cell growth, NCI panel, 48 h
TK-10 renal = test system: TK-10 renal
K-562 leukemia = test system: K-562 leukemia
MDA-MB-435 = test system: MDA-MB-435
KM12 colon = test system: KM12 colon
786-0 renal = test system: 786-0 renal
COLO 205 colon = test system: COLO 205 colon
MALME-3M melanoma = test system: MALME-3M melanoma
SF-539 CNS = test system: SF-539 CNS
SK-OV-3 ovarian = test system: SK-OV-3 ovarian
SNB-75 CNS = test system: SNB-75 CNS

Compound	TGI (TK-10 renal)	TGI (K-562 leukemia) [µM]	TGI (MDA-MB-435) [µM]	TGI (KM12 colon) [µM]	TGI (786-0 renal) [µM]	TGI (COLO 205 colon) [µM]	TGI (MALME-3M melanoma) [µM]	TGI (SF-539 CNS)	TGI (SK-OV-3 ovarian)	TGI (SNB-75 CNS) [µM]	GI50 (TK-10 renal)	GI50 (SF-539 CNS)	GI50 (K-562 leukemia) [µM]	GI50 (MDA-MB-435) [µM]	GI50 (SK-OV-3 ovarian)	GI50 (KM12 colon) [µM]	GI50 (SNB-75 CNS) [µM]	GI50 (COLO 205 colon) [µM]	GI50 (MALME-3M melanoma) [µM]
CC(C)=NN/C(=N\S(=O)(=O)c1ccc(Oc2cccc(Cl)c2C#N)cc1)Nc1ccc(Cl)cc1	> 100 µM	> 100	> 100	> 100	> 100	> 100	> 100												
COc1cccc(CCN2CCN(CCCc3ccccc3)CC2)c1	> 100 µM	> 100	> 100	> 100	> 100	45.2	> 100	> 100 µM	> 100 µM	> 100									
NCCCN(CCCN(C(=O)Nc1ccccc1)c1ccccc1)C(=O)Nc1ccccc1	> 100 µM	> 100			> 100	> 100	38.9		> 100 µM	77.6									
CSCCC(N)C(=O)NCCNc1ccc(NCCNC(=O)C(N)CCSC)c2c1C(=O)c1ccccc1C2=O (centres undefined)	9.3 µM	> 100	4.59	12.8	1.89	3.13	6.6	3.11 µM	10.3 µM	3.65									
NC(=O)c1cccc([N+](=O)[O-])c1	> 100 µM	> 100		> 100	> 100	> 100	> 100	> 100 µM	> 100 µM	> 100									
CCCCC(=O)c1c(O)nc2sccn2c1=O	> 10 µM		> 10	> 10		> 10	> 10	> 10 µM	> 10 µM	> 10									
COc1cc2ccc(=O)oc2cc1O		562		> 625		> 625	489	201 µM	509 µM	175									
CCCCOC(=O)C(NC(C(=O)OCCCC)c1cc(C(C)(C)C)c(O)c(C(C)(C)C)c1)c1cc(C(C)(C)C)c(O)c(C(C)(C)C)c1 (centres undefined)	> 100 µM	> 100	> 100	> 100	> 100	> 100	> 100	> 100 µM	> 100 µM	> 100									
ClCCCc1ccccc1C1=NCCc2ccccc21	> 100 µM	> 100	> 100	> 100	> 100	52.9		> 100 µM	> 100 µM	> 100									
CC1(C)N/C(=C\C=O)C(C)(C)N1O	> 100 µM	> 100	> 100	> 100		> 100	> 100	> 100 µM	> 100 µM										
CO/N=C1\CC(NC(=O)CNC(=O)OC(C)(C)C)c2ccsc21 (centres undefined)	> 100 µM		> 100			> 100	> 100	> 100 µM	> 100 µM	> 100									
COC(OC)[C@@H]1OC[C@H](n2cnc3c(N)ncnc32)[C@H]1O	> 100 µM	> 100	> 100	> 100	> 100	> 100		> 100 µM	> 100 µM	> 100									
Cc1cc(-c2nc3cc(F)ccc3s2)ccc1NC(=O)[C@@H](N)CCCCN	0.903 µM	5.21	3.69	3.36	7.29	9.35	33.2	9.73 µM	25.7 µM	4.99									
OC1(c2ccccc2)CCN(Cc2c[nH]c3ccccc23)CC1	> 100 µM	> 100	> 100	> 100	> 100	31.7	52.4	> 100 µM	> 100 µM	> 100									
Cc1ccc(/C(O)=C/c2nc3ccccc3sc2=O)c(C)c1	> 100 µM	> 100	> 100	> 100	> 100	> 100	> 100	> 100 µM	> 100 µM										
CC1C(=O)N(c2ccccc2)NC12CCCc1ccccc12 (centres undefined)	> 100 µM	> 100	> 100	> 100		> 100	> 100	> 100 µM	> 100 µM	> 100									
COc1ccc(C2=Nc3cc(C)c(C)cc3NC(c3ccccc3)C2)cc1 (centres undefined)	> 100 µM	> 100	> 100	> 100	> 100	37.6	> 100	> 100 µM	> 100 µM										
COc1c(O)c(C=O)c2c(O)c(-c3c(C)cc4c(C(C)C)c(OC)c(O)c(C=O)c4c3O)c(C)cc2c1C(C)C	19.3 µM	> 100		16		4	18.8	12.8 µM	14.2 µM	9.38									
CN(C)c1nc(N)nc(CS)n1	> 100 µM	> 100	> 100	> 100	> 100	> 100		> 100 µM	> 100 µM	> 100									
O=S(Nc1ccccc1)c1ccc(N2CCOCC2)cc1 (centres undefined)	> 100 µM	> 100	> 100	> 100	> 100	> 100	> 100	> 100 µM											
C[n+]1cccc2c(=O)c3ccccc3oc21	> 100 µM	> 100	> 100	> 100		> 100	> 100	> 100 µM	> 100 µM	> 100									
COc1ccc(CC(N)c2ccc(OC)cc2)cc1 (centres undefined)	> 100 µM	> 100	> 100	> 100	> 100	36.9	> 100		> 100 µM	> 100									
CCNC(=S)N=Nc1c(O)[nH]c2ccc([N+](=O)[O-])cc12	> 100 µM	> 100	> 100	> 100	69	> 100	> 100	> 100 µM	> 100 µM										

Compound	TGI (TK-10 renal)	TGI (K-562 leukemia) [µM]	TGI (MDA-MB-435) [µM]	TGI (KM12 colon) [µM]	TGI (786-0 renal) [µM]	TGI (COLO 205 colon) [µM]	TGI (MALME-3M melanoma) [µM]	TGI (SF-539 CNS)	TGI (SK-OV-3 ovarian)	TGI (SNB-75 CNS) [µM]	GI50 (TK-10 renal)	GI50 (SF-539 CNS)	GI50 (K-562 leukemia) [µM]	GI50 (MDA-MB-435) [µM]	GI50 (SK-OV-3 ovarian)	GI50 (KM12 colon) [µM]	GI50 (SNB-75 CNS) [µM]	GI50 (COLO 205 colon) [µM]	GI50 (MALME-3M melanoma) [µM]
CCOP(=O)(/C=C\n1cc(C)c(=O)[nH]c1=O)OCC	> 100 µM	> 100	> 100	> 100	> 100	> 100		> 100 µM	> 100 µM	> 100									
Cc1ccc(S(=O)(=O)n2c3ccc(Br)cc3c3nc4ccccc4nc32)cc1	> 100 µM	> 100	> 100	> 100	> 100	> 100				> 100									
CC(NC(=O)C(NC(=O)CNC(=O)OC(C)(C)C)C(C)C)C(=O)Oc1c(Cl)c(Cl)c(Cl)c(Cl)c1Cl (centres undefined)	77.2 µM	> 100	61.3	30.4		43.2	49.4	33.4 µM	51.5 µM	78.7									
[Cl][Sn]([c]1ccccc1)([c]1ccccc1)[c]1ccccc1	0.604 µM and 0.283 µM	0.892	0.42					0.642 µM and 0.244 µM and 0.0847 µM	0.696 µM and 0.335 µM		0.24 µM and 0.148 µM	0.25 µM and 0.109 µM and 0.0284 µM	0.302	0.186	0.239 µM and 0.178 µM				
Cc1cccc(Nc2nn3c(=O)c4c5c(sc4nc3s2)CCCC5)c1	> 100 µM	> 100	> 100	> 100	> 100	> 100		> 100 µM	> 100 µM	78.4									
CCN(CC)N1C(=O)[N+](CC)(CC)N=C1[O-]	> 100 µM		> 100	> 100	> 100	> 100	> 100	> 100 µM	> 100 µM	> 100									
O=c1cc(N2CCCC2)[nH]c(=O)n1Cc1ccccc1	> 100 µM	> 100	> 100	> 100	> 100	> 100	> 100	> 100 µM		> 100									
COC(=O)C1CCC(=S)N1C(=O)c1ccccc1 (centres undefined)	> 100 µM	> 100	> 100	> 100	> 100	> 100	> 100		> 100 µM	> 100									
Cc1ccc(OCC2OC(n3cnc4nc(N)nc(Cl)c43)CC2Oc2ccc(C)cc2)cc1 (centres undefined)	> 100 µM		> 100	44	> 100	36.4	69.2	> 100 µM	> 100 µM	30.4									
COP(=O)(OC)C(Cc1cn(C(C)=O)c2ccccc12)C(=O)O (centres undefined)	> 100 µM	> 100				> 100			> 100 µM	> 100									
CCOc1ccc(N/C(=C(/C(Cl)=C(/Cl)N(CC)CC)[N+](=O)[O-])n2nnc3ccccc32)cc1		> 100	33.9	26.3	33.2	37.2	39	47.4 µM	> 100 µM	51.2									
C=C/C(C)=C\CC1[C@](C)(O)CC[C@H]2C(C)(C)C(=O)CC[C@]12C (some centres undefined)	> 100 µM	> 100	> 100	> 100	> 100	> 100	> 100	> 100 µM		> 100									
CCNCCCn1c2c(c3ccc(Cl)cc3c1=O)C(=O)c1cc(OC)cnc1-2			2.55	2.26		1.57	3.12	1.71 µM	1.94 µM	1.64		0.506 µM		1.15	0.475 µM	0.755	0.262	0.146	1.37
COc1ccc2c3c1OC1C(=O)C=CC4(CC2)N(C)CCC314 (centres undefined)	> 100 µM	> 100	61.2	43.4	63.7	22.7	> 100		> 100 µM	> 100									
CC(C)CNc1nc2ncnc(N)c2[nH]1	> 100 µM	> 100	> 100	> 100	> 100	> 100	> 100	> 100 µM	> 100 µM										
O=C(N/N=C/C=C/c1ccc([N+](=O)[O-])o1)c1cc2ccccc2cc1O	8.13 µM	9.53	2.38	2.85		3.35	3.4	10.2 µM	38.5 µM	6.12	2.44 µM	2.44 µM	0.632	0.506	3.36 µM	1.42	1.97	1.84	1.5
O=C1C[C@@H](C(=O)OCc2ccccc2)NC(=O)C[C@@H](C(=O)OCc2ccccc2)NC(=O)C[C@@H](C(=O)OCc2ccccc2)N1	73.6 µM	21.8	> 100	> 100	> 100	> 100		> 72.3 µM	97.1 µM	13.7									
Nc1ccc(S(=O)(=O)c2ccc(NCN3C(=O)NC(=O)C(=O)C3=O)cc2)cc1	> 100 µM	> 100	> 100	> 100	> 100		> 100												
C/C=C/c1cc(=O)c([C@@H]2OC(=O)c3cc(OC)cc(OC)c32)co1	> 100 µM	> 100		> 100		55.5		> 100 µM		60.3									
Cc1cc(S(=O)(=O)N/C(=C(\C#N)C(=O)c2ccc(Cl)cc2)[n+]2ccc(N(C)C)cc2)c([S-])cc1Cl	> 100 µM	> 100	> 100	> 100	> 100	> 100	80	> 100 µM	96.7 µM										
O=C(NCCCCCCCCCCCCNC(=O)Nc1cccc2ccccc12)Nc1cccc2ccccc12	31.5 µM	50.5	33.5	33.6	32.2	44.1	34.4	27 µM		32.7									
NC(=O)NNc1nc(-c2ccccc2)cs1	> 100 µM	> 100	> 100	> 100	> 100	> 100	> 100		> 100 µM	> 100									
CC(=O)OCC1OC(SC2=N/C(=C\c3ccc(Br)s3)C(=O)N2CN2CCOCC2)C(OC(C)=O)C(OC(C)=O)C1OC(C)=O (centres undefined)	34.8 µM	45.7	> 100	35.3	36.5	37.6	35.6			68.3									
